According to patent publication US7405240B2, “Substituted cyclopentanes or cyclopentanones as therapeutic agents” (Allergan, Inc., priority 2006, dated 2008):

Assays:
hEP2 [1] = molecular target: T1, hEP2 (Homo sapiens, UniProt P43116); test: cAMP assay, hEP2; format: cell-based
hEP4 [2] = molecular target: T2, hEP4 (Homo sapiens, UniProt P35408); test: FLIPR calcium signal, hEP4; format: cell-based; design: expressed in transfected cells; host or cells: HEK-293(EBNA); conditions: HEK-293(EBNA) cells expressing hEP4/Gqs5
T2 sequence (P35408 whole entry): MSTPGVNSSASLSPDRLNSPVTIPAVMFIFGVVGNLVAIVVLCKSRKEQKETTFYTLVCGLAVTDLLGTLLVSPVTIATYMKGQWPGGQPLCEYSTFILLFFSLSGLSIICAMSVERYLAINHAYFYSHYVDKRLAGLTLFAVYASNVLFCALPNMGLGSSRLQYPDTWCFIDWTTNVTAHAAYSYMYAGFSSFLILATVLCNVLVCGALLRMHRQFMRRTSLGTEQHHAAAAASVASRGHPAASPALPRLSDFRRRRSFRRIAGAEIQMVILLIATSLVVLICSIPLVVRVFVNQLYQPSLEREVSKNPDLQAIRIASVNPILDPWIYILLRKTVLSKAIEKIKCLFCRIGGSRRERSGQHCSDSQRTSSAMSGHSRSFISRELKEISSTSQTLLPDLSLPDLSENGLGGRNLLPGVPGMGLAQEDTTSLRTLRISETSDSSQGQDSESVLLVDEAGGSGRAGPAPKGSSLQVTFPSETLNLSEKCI
Summary of the method: (§1)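 HEK-293(EBNA) cells stably expressing a single human prostaglandin receptor (hDP/Gqs5 chimera for DP), Fluo-4 AM loaded, in HBSS-HEPES pH 7.4 at 37 °C. Peak calcium fluorescence scaled to buffer and receptor standard agonist; 10^−5 M single-point or 10^−5–10^−11 M curves, duplicates, n≥3.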

[3] = system: laser-induced hypertensive monkeys; test: Intraocular pressure in laser-induced hypertensive monkeys; format: in vivo, monkey; conditions: 0.1%, one single day dose; for change in vivo at 0.1 %: Primates, topical, read-out: maximum IOP decrease from baseline
Method: (§2) (Z)-7-[(1R,2S,3R,5R)-5-Chloro-2-(3,5-dichloro-phenoxymethyl)-3-hydroxy-cyclopentyl]-hept-5-enoic acid (15b) was tested at multiple concentrations in normotensive dogs, dosing once daily for 5 days. At 0.05%, the maximum IOP decrease from baseline was 4.3 mmHg (30%) at 6 h; the maximum OSH score was 0.6 at 6 h. […] This compound was also tested in laser-induced hypertensive monkeys, using one single day dose. At 0.1%, the maximum IOP decrease from baseline was 6 mmHg (19%) at 6 h.
(§3) (Z)-7-[(1R,2S,3R,5R)-5-Chloro-2-(3,5-dichloro-phenoxymethyl)-3-hydroxy-cyclopentyl]-hept-5-enoic acid isopropyl ester (42b) was tested in normotensive dogs at 0.05%, dosing once daily for 5 days. The maximum intraocular pressure (IOP) decrease from baseline was 3 mmHg (19%) at 6 h; the maximum ocular surface hyperemia (OSH) score was 0.6 at 74 h. This compound was also tested in laser-induced hypertensive monkeys, using one single day dose. At 0.01%, the maximum IOP decrease from baseline was 6 mmHg (16%) at 6 h.

hEP2 [4] = molecular target: T1, hEP2; test: Competition binding, [3H]PGE2, human EP2 receptors; design: expressed in transfected cells; host or cells: HEK 293; conditions: [3H]PGE2, HEK 293 cells stably expressing human EP2; read-out: hEP2 Ki
Summary of the method: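 HEK 293 membranes or cells stably expressing human EP2 were incubated with 10 nM [3H]PGE2 and test compound in HBSS/20 mM Hepes pH 7.3, 60 min at 23° C, then filtered. Non-specific binding defined with 10 μM PGE2; IC50 from single-site fit converted to Ki using KD 40 nM.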

hEP4 [5] = molecular target: T2, hEP4; test: Radioligand binding, EP4 receptor; design: expressed in transfected cells; host or cells: HEK-293; conditions: [3H]PGE2, HEK-293 cells expressing EP4
Summary of the method: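 HEK-293 membranes stably expressing human EP4, in TME buffer pH 7.4; competition vs 5 nM [3H]-PGE2, 60 min at 25 °C, stopped by GF/B filtration. Non-specific binding defined with 10^−5 M unlabeled PGE2; duplicates, at least three experiments.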

hEP2 [6] = molecular target: T1, hEP2; test: FLIPR calcium signal, hEP2; format: cell-based; design: expressed in transfected cells; host or cells: HEK-293(EBNA); conditions: HEK-293(EBNA) cells expressing hEP2/Gqs5
Summary of the method: as §1

normotensive dogs = test: Intraocular pressure and ocular surface hyperemia in normotensive dogs; format: in vivo, dog; design: maximum OSH score: scale not given here; conditions: 0.1%, once daily for 5 days; for change in vivo at 0.1 %: Canis lupus familiaris, topical, 120 h, read-out: maximum IOP decrease from baseline
Method: as §2, §3

T1 sequence (P43116 whole entry): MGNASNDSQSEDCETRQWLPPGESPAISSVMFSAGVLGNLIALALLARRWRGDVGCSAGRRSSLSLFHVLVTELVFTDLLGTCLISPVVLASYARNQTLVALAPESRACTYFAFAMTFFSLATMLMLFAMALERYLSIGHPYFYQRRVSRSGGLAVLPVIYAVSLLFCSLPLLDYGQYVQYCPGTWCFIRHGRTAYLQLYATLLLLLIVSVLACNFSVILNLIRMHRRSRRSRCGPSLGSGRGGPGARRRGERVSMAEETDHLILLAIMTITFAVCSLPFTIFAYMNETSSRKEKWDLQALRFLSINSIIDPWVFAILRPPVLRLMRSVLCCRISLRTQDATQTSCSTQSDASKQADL

| EC50 (hEP2 [1]) | EC50 (hEP4 [2]) | Ki (hEP2 [4]) | Ki (hEP4 [5]) | EC50 (hEP2 [6]) | maximum OSH score (normotensive dogs) | time of maximum OSH score (normotensive dogs) | SMILES | maximum IOP decrease from baseline [3] | time of maximum IOP decrease [3] | change in vivo at 0.1 % [3] | maximum IOP decrease from baseline (normotensive dogs) | time of maximum IOP decrease (normotensive dogs) | change in vivo at 0.1 % (normotensive dogs) |
| --- | --- | --- | --- | --- | --- | --- | --- | --- | --- | --- | --- | --- | --- |
| 8 nM | 13000 nM | 8 nM | 2290 nM | 11 nM | 0.9 | 52 h | O=C(O)CCC/C=C\C[C@@H]1[C@@H](COc2cc(C(F)(F)F)cc(C(F)(F)F)c2)[C@H](O)C[C@H]1Cl [Example 15, (Z)-7-[(1R,2S,3R,5R)-2-(3,5-Bis-trifluoromethyl-phenoxymethyl)-5-chloro-3-hydroxy-cyclopentyl]-hept-5-enoic acid] | 11 mmHg | 6 h | 30% | 4.8 mmHg | 100 h | 35% |
| 2.4 nM | 9870 nM | 44 nM | 1420 nM | 66 nM | 0.5 | 6 h | O=C(O)CCC/C=C\C[C@@H]1[C@@H](COc2cccc(C(F)(F)F)c2)[C@H](O)C[C@H]1Cl [Example 24, (Z)-7-[(1R,2S,3R,5R)-5-Chloro-3-hydroxy-2-(3-trifluoromethyl-phenoxymethyl)-cyclopentyl]-hept-5-enoic acid] | 10.8 mmHg | 6 h | 28% | 2.5 mmHg | 78 h | 16% |
| 2 nM | 115 nM | 17 nM | 315 nM | 3 nM | 0.8 | 54 h | O=C(O)CCC/C=C\C[C@@H]1[C@@H](COc2cccc3ccccc23)[C@H](O)C[C@H]1Cl [Example 19, (Z)-7-[(1R,2S,3R,5R)-5-Chloro-3-hydroxy-2-(naphthalen-1-yloxymethyl)-cyclopentyl]-hept-5-enoic acid] | 11.8 mmHg | 6 h | 31% | 5.8 mmHg | 6 h | 41% |
| 1.4 nM | 7720 nM | 31 nM | 1090 nM | 27 nM | 1.2 | 28 h | Cc1cc(C)cc(OC[C@@H]2[C@@H](C/C=C\CCCC(=O)O)[C@H](Cl)C[C@H]2O)c1 [Example 36, (Z)-7-[(1R,2S,3R,5R)-5-Chloro-2-(3,5-dimethyl-phenoxymethyl)-3-hydroxy-cyclopentyl]-hept-5-enoic acid] | 9 mmHg | 2 h | 25% | 6.5 mmHg | 52 h | 46% |
